Data from ChEMBL document CHEMBL1201862, “PubChem BioAssay data set” (2004).
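Five concentrations, 48 hours, 96-well plates. The concentration for 50% growth inhibition is given as GI50.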 Calls of active or inactive are those of the source. No stated cut-off is given here; in the data, active = GI50 up to about 1.1 µM and inactive = higher.

Columns and labels:
Test in all cases: inhibition of tumour cell growth, NCI panel, 48 h
786-0 = system: 786-0
ACHN = system: ACHN
CAKI-1 = system: CAKI-1
HCC 2998 = system: HCC 2998
IGROV-1 = system: IGROV-1
KM12 = system: KM12
LOX IMVI = system: LOX IMVI
NCI-H522 = system: NCI-H522
SF-539 = system: SF-539
SNB-19 = system: SNB-19
U-251 = system: U-251
UO-31 = system: UO-31
A498 = system: A498
Malme-3M = system: Malme-3M
RXF 393 = system: RXF 393
HL-60 = system: HL-60

Measured: GI50

CN(C)/C(=N\C#N)NCc1ccccc1
inactive: 786-0 > 100 µM | ACHN > 100 µM | CAKI-1 > 100 µM | HCC 2998 > 100 µM | IGROV-1 > 100 µM | KM12 > 100 µM | LOX IMVI > 100 µM | NCI-H522 > 100 µM | SF-539 > 100 µM | SNB-19 > 100 µM | U-251 > 100 µM | UO-31 > 100 µM

CCCCCCCCCCCC(=O)OCC1OC(n2cc(F)c(=O)[nH]c2=O)C(NC(=O)OCc2ccccc2)C(OC(=O)CCCCCCCCCCC)C1O (centres undefined)
inactive: 786-0 > 100 µM | A498 > 100 µM | ACHN > 100 µM | CAKI-1 > 100 µM | HCC 2998 > 100 µM | IGROV-1 > 100 µM | KM12 > 100 µM | LOX IMVI > 100 µM | Malme-3M > 100 µM | NCI-H522 > 100 µM | RXF 393 > 100 µM | SF-539 > 100 µM | SNB-19 > 100 µM | U-251 > 100 µM | UO-31 > 100 µM

CCCCn1/c(=N/C(=S)N(C)C)ss/c1=N\C(=S)N(C)C
inactive: 786-0 > 100 µM | A498 > 100 µM | ACHN > 100 µM | CAKI-1 > 100 µM | HCC 2998 > 100 µM | HL-60 > 100 µM | IGROV-1 > 100 µM | KM12 > 100 µM | LOX IMVI > 100 µM | Malme-3M > 100 µM | RXF 393 > 100 µM | SF-539 > 100 µM | SNB-19 > 100 µM | U-251 > 100 µM | UO-31 > 100 µM

C1=C2/CC[C@H](Sc3ccccc3)C2C2(CCCCC/1)OCCO2 (some centres undefined)
inactive: 786-0 42.4 µM | ACHN 26.7 µM | HCC 2998 23.5 µM | HL-60 8.41 µM | IGROV-1 27.9 µM | KM12 26.5 µM | LOX IMVI 15.2 µM | Malme-3M 22.1 µM | RXF 393 15.7 µM | SF-539 41.8 µM | SNB-19 > 100 µM | U-251 29.3 µM

O=C(O)c1ccccc1NC(=O)C1CCCCC1
inactive: 786-0 > 100 µM | A498 31.8 µM | ACHN > 100 µM | HCC 2998 > 100 µM | HL-60 > 100 µM | IGROV-1 > 100 µM | KM12 > 100 µM | LOX IMVI > 100 µM | Malme-3M > 100 µM | SF-539 > 100 µM | SNB-19 > 100 µM | U-251 > 100 µM | UO-31 > 100 µM

CN(C)c1ccc(/C=C2\CNC/C(=C\c3ccc(N(C)C)cc3)C2=O)cc1
inactive: 786-0 16.8 µM | A498 17.6 µM | ACHN 24.4 µM | HCC 2998 29.3 µM | IGROV-1 22 µM | KM12 > 10 µM | LOX IMVI 18.8 µM | Malme-3M > 100 µM | RXF 393 24 µM | SF-539 59.2 µM | U-251 14.4 µM | UO-31 36.2 µM

O=C(CCC1C(=O)NC(=S)NC1=O)c1ccc2ccccc2c1
inactive: 786-0 > 100 µM | A498 > 100 µM | ACHN > 100 µM | CAKI-1 > 100 µM | HCC 2998 > 100 µM | HL-60 > 100 µM | IGROV-1 > 100 µM | KM12 > 100 µM | LOX IMVI > 100 µM | Malme-3M > 100 µM | NCI-H522 14.8 µM | RXF 393 > 100 µM | SF-539 > 100 µM | SNB-19 > 100 µM | U-251 > 100 µM | UO-31 > 100 µM

COC(=O)C(C(=O)C(=O)Nc1c(C)cccc1C)c1cnc2ccccc2n1 (centres undefined)
inactive: 786-0 > 100 µM | A498 > 100 µM | ACHN > 100 µM | CAKI-1 > 100 µM | HCC 2998 > 100 µM | HL-60 > 100 µM | IGROV-1 > 100 µM | KM12 > 100 µM | LOX IMVI > 100 µM | Malme-3M > 100 µM | NCI-H522 > 100 µM | RXF 393 > 100 µM | SNB-19 > 100 µM | U-251 > 100 µM | UO-31 > 100 µM

CN[C@@H](C)[C@H](NC)c1ccccc1
inactive: 786-0 > 100 µM | CAKI-1 > 100 µM | HCC 2998 > 100 µM | HL-60 > 100 µM | IGROV-1 > 100 µM | KM12 > 100 µM | LOX IMVI > 100 µM | Malme-3M > 100 µM | NCI-H522 > 100 µM | RXF 393 > 100 µM | SF-539 > 100 µM | SNB-19 > 100 µM | U-251 > 100 µM | UO-31 > 100 µM

C[C@@H]1OC2(O)[C@H]3CCCN3S(=O)(=O)CCN2C1=O (some centres undefined)
inactive: 786-0 > 100 µM | A498 > 100 µM | ACHN > 100 µM | CAKI-1 > 100 µM | HCC 2998 > 100 µM | HL-60 > 100 µM | IGROV-1 > 100 µM | KM12 > 100 µM | LOX IMVI > 100 µM | Malme-3M > 100 µM | NCI-H522 > 100 µM | RXF 393 > 100 µM | SF-539 > 100 µM | SNB-19 > 100 µM | U-251 > 100 µM | UO-31 > 100 µM

COc1ccc2cc(C(=O)c3ccccc3C(=O)O)ccc2c1
inactive: 786-0 > 100 µM | A498 > 100 µM | ACHN > 100 µM | CAKI-1 > 100 µM | HCC 2998 > 100 µM | HL-60 > 100 µM | IGROV-1 > 100 µM | KM12 > 100 µM | LOX IMVI > 100 µM | Malme-3M > 100 µM | NCI-H522 > 100 µM | RXF 393 > 100 µM | SNB-19 > 100 µM | U-251 > 100 µM | UO-31 > 100 µM

CN(C)c1ccc2c(=O)c3ccccc3oc2n1
inactive: 786-0 > 100 µM | ACHN 42 µM | CAKI-1 > 100 µM | HCC 2998 > 100 µM | HL-60 > 100 µM | IGROV-1 93.1 µM | KM12 69.7 µM | LOX IMVI > 100 µM | Malme-3M > 100 µM | NCI-H522 > 100 µM | RXF 393 > 100 µM | SNB-19 > 100 µM | UO-31 69.2 µM

COc1ccc(NC(=O)C(=O)Cc2nc3ccc([N+](=O)[O-])cc3nc2O)c(OC)c1
inactive: 786-0 > 100 µM | A498 44.6 µM | ACHN > 100 µM | CAKI-1 > 100 µM | HCC 2998 > 100 µM | HL-60 > 100 µM | IGROV-1 > 100 µM | KM12 > 100 µM | LOX IMVI 87.9 µM | Malme-3M > 100 µM | NCI-H522 83.4 µM | RXF 393 > 100 µM | SF-539 > 100 µM | SNB-19 > 100 µM | UO-31 > 100 µM

CCN(CC)CCSc1c2ccccc2nc2cc(NCC(=O)Nc3ccccc3-c3ccccc3NC(=O)CNc3ccc4c(SCCN(CC)CC)c5ccccc5nc4c3)ccc12
inactive: 786-0 > 92.9 µM | A498 > 100 µM | ACHN > 100 µM | CAKI-1 > 100 µM | HCC 2998 > 100 µM | HL-60 20.3 µM | IGROV-1 > 100 µM | KM12 > 74.8 µM | LOX IMVI > 76.6 µM | Malme-3M > 77.3 µM | NCI-H522 74.6 µM | RXF 393 > 100 µM | SF-539 > 100 µM | SNB-19 > 100 µM | U-251 > 100 µM | UO-31 > 100 µM
